Measurements taken from BindingDB's records for doi:10.1016/j.bmcl.2008.02.015 (Deltagen Research Laboratories (Former Combichem), 2008).

Test: Antagonist activity at human CCR2 in THP1 cells assessed as inhibition of MCP1-induced chemotaxis

SMILES | IC50 [nM]
Cc1ccc(CN2CC[C@@H](NC(=O)CNC(=O)c3cccc(C(F)(F)F)c3)C2)cc1 | 12.4
Cc1ccc(CN2CC[C@@H](NC(=O)CNC(=O)c3cccc(C(F)(F)F)c3)C2)c(C)c1 [(R)-N-(2-(1-(2,4-dimethylbenzyl)pyrrolidin-3-ylamino)-2-oxoethyl)-3-(trifluoromethyl)benzamide] | 16
COc1ccc(CN2CC[C@@H](NC(=O)CNC(=O)c3cccc(C(F)(F)F)c3)C2)cc1 | 35
COc1ccc(CN2CC[C@@H](NC(=O)CNC(=O)c3cc(C(F)(F)F)ccc3N)C2)cc1O | 9.2
C=Cc1ccc(CN2CC[C@@H](NC(=O)CNC(=O)c3cc(C(F)(F)F)ccc3N)C2)cc1 | 3.9
Cc1ccc(CN2CC[C@@H](NC(=O)CNC(=O)c3cc(C(F)(F)F)ccc3N)C2)c(C)c1 | 0.83
CC(NC(=O)c1cccc(C(F)(F)F)c1)C(=O)N[C@@H]1CCN(Cc2ccc(Cl)cc2)C1 (stereo partly drawn) | 22000
Nc1ccc(C(F)(F)F)cc1C(=O)NCC(=O)N[C@@H]1CCN(Cc2ccc(Cl)cc2)C1 | 3.6
O=C(CNC(=O)c1cccc([N+](=O)[O-])c1)N[C@@H]1CCN(Cc2ccc(Cl)cc2)C1 | 445
COc1ccc(CN2CC[C@@H](NC(=O)CNC(=O)c3cc(C(F)(F)F)ccc3N)C2)cc1 | 11
O=C(CNC(=O)c1cccc(C(F)(F)F)c1)N[C@@H]1CCN(Cc2ccc(Br)cc2)C1 | 21
O=C(CNC(=O)c1cccc(C(F)(F)F)c1)N[C@@H]1CCN(Cc2ccccc2-c2ccc3ccccc3c2)C1 | 74
C=Cc1ccc(CN2CC[C@@H](NC(=O)CNC(=O)c3cccc(C(F)(F)F)c3)C2)cc1 | 6.2
CCc1ccc(CN2CC[C@@H](NC(=O)CNC(=O)c3cccc(C(F)(F)F)c3)C2)cc1 | 9.4
COc1cc(CN2CC[C@@H](NC(=O)CNC(=O)c3cc(C(F)(F)F)ccc3N)C2)ccc1O | 14
COc1cc(CN2CC[C@@H](NC(=O)CNC(=O)c3cccc(C(F)(F)F)c3)C2)ccc1O | 77
O=C(CNC(=O)c1cccc(C(F)(F)F)c1)N[C@@H]1CCN(Cc2ccccc2Cl)C1 | 418
O=C(CNC(=O)c1cccc(C(F)(F)F)c1)N[C@@H]1CCN(Cc2ccc(F)cc2)C1 | 121
O=C(CCNC(=O)c1cccc(C(F)(F)F)c1)N[C@@H]1CCN(Cc2ccc(Cl)cc2)C1 | 10000
Nc1ccc([N+](=O)[O-])cc1C(=O)NCC(=O)N[C@@H]1CCN(Cc2ccc(Cl)cc2)C1 | 43
CSc1ccc(CN2CC[C@@H](NC(=O)CNC(=O)c3cccc(C(F)(F)F)c3)C2)cc1 | 21
Cc1ccc(CN2CC[C@@H](NC(=O)CNC(=O)c3cc(C(F)(F)F)ccc3N)C2)cc1 | 3.1
Nc1cc(CN2CC[C@@H](NC(=O)CNC(=O)c3cc(C(F)(F)F)ccc3N)C2)ccc1O | 18

More lines, in order of falling IC50, values ahead:

IC50 [nM] | SMILES
473 | O=C(CNC(=O)c1cccc(Br)c1)N[C@@H]1CCN(Cc2ccc(Cl)cc2)C1
418 | O=C(CNC(=O)c1cccc(C(F)(F)F)c1)N[C@@H]1CCN(Cc2ccccc2)C1
360 | O=C(CNC(=O)c1cccc(OC(F)(F)F)c1)N[C@@H]1CCN(Cc2ccc(Cl)cc2)C1
127 | Cc1ccccc1CN1CC[C@@H](NC(=O)CNC(=O)c2cccc(C(F)(F)F)c2)C1
103 | O=C(CNC(=O)c1cccc(C(F)(F)F)c1)N[C@@H]1CCN(Cc2ccc(OC(F)(F)F)cc2)C1
43 | Nc1ccc(OC(F)(F)F)cc1C(=O)NCC(=O)N[C@@H]1CCN(Cc2ccc(Cl)cc2)C1
24 | O=C(CNC(=O)c1cccc(C(F)(F)F)c1)N[C@@H]1CCN(Cc2ccc(Cl)cc2)C1 [(R)-N-(2-(1-(4-chlorobenzyl)pyrrolidin-3-ylamino)-2-oxoethyl)-3-(trifluoromethyl)benzamide]
22 | Nc1ccc(I)cc1C(=O)NCC(=O)N[C@@H]1CCN(Cc2ccc(Cl)cc2)C1
12 | Cc1ccc(CN2CC[C@@H](NC(=O)CNC(=O)c3cc(C(F)(F)F)ccc3N)C2)cc1N
11 | Nc1cc(CN2CC[C@@H](NC(=O)CNC(=O)c3cc(C(F)(F)F)ccc3N)C2)ccc1Cl
8.8 | COc1ccc(CN2CC[C@@H](NC(=O)CNC(=O)c3cc(C(F)(F)F)ccc3N)C2)cc1N
5.5 | O=C(CNC(=O)c1cccc(C(F)(F)F)c1)N[C@@H]1CCN(Cc2ccc(O)cc2)C1
5.1 | Nc1ccc(C(F)(F)F)cc1C(=O)NCC(=O)N[C@@H]1CCN(Cc2ccc(O)cc2)C1
2.6 | Nc1ccc(C(F)(F)F)cc1C(=O)NCC(=O)N[C@@H]1CCN(Cc2ccc(Br)cc2)C1
0.89 | CCc1ccc(CN2CC[C@@H](NC(=O)CNC(=O)c3cc(C(F)(F)F)ccc3N)C2)cc1
